# Experimental data as given in the supplement of paper PMC10307832.
# Assays:
# Assay in all cases: relative viability (nuclei count vs DMSO), 5 days (fraction); higher = more cells survive
# [1] = compound: CC1=C(CC(=O)O)c2cc(F)ccc2/C1=C\c1ccc([S+](C)[O-])cc1 [Sulindac]
# Procedure, shortened: (§1)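 Lung cancer cell lines were seeded into 1536-well plates, kept overnight at 37 °C and pinned with five library-drug doses (not always all listed) spaced by √10. After 5 days, nuclei were Hoechst-stained, imaged at 4× and counted with MetaXpress. Viability is treated-well nuclei over vehicle-well nuclei, taken as a median across plates. Plates needed control CV below 25% and at least one doubling.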
# [2] = compound: CN[C@@H]1C[C@H]2O[C@@](C)([C@@H]1OC)n1c3ccccc3c3c4c(c5c6ccccc6n2c5c31)C(=O)NC4 [Staurosporine]
# Procedure, shortened: as §1
# [3] = compound: O=c1[nH]cc(F)c(=O)[nH]1 [5-Fluorouracil]
# Procedure, shortened: as §1
# [4] = compound: CN[C@@H]1C[C@H]2O[C@@](C)([C@@H]1OC)n1c3ccccc3c3c4c(c5c6ccccc6n2c5c31)C(=O)NC4 [Staurosporine] + C[C@@H](Oc1cc(-c2cnn(C3CCNCC3)c2)cnc1N)c1c(Cl)ccc(F)c1Cl [Crizotinib] (partner 1 µM)
# Procedure, shortened: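 Relative viability divides the nuclei count in treated wells by that in vehicle wells. Lung cancer cell lines were seeded in 1536-well plates, dosed by pin tool the next day, and fixed and stained after 5 days in one step with final 0.05% Triton X-100, 1% formaldehyde and 1 ug/ml Hoechst. Dosing was a single drug or a fixed anchor-drug dose plus five library-drug doses (not always all listed) in √10 steps, and values are medians of duplicate plates imaged at 4×.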
cell line,measurement,setting,value
NCI-H2009,relative viability,[1]; 0.08 µM,1.1
same,relative viability,[1]; 0.253 µM,1.08
same,relative viability,[1]; 0.8 µM,0.972
same,relative viability,[1]; 2.53 µM,1
same,relative viability,[1]; 8 µM,1.11
same,relative viability,[2]; 0.005 µM,0.452
same,relative viability,[2]; 0.01581 µM,0.227
same,relative viability,[2]; 0.05 µM,0.231
same,relative viability,[2]; 0.1581 µM,0.167
same,relative viability,[2]; 0.5 µM,0.109
same,relative viability,[3]; 0.02 µM,1.1
same,relative viability,[3]; 0.2 µM,1.02
same,relative viability,[3]; 0.6325 µM,0.82
same,relative viability,[3]; 2 µM,0.652
same,relative viability,[4]; first compound 0.005 µM,0.255
same,relative viability,[4]; first compound 0.01581 µM,0.22
same,relative viability,[4]; first compound 0.05 µM,0.174
same,relative viability,[4]; first compound 0.1581 µM,0.123
same,relative viability,[4]; first compound 0.5 µM,0.0888
NCI-H2023,relative viability,[1]; 0.08 µM,1.39
same,relative viability,[1]; 0.253 µM,1.05
same,relative viability,[1]; 0.8 µM,0.744
same,relative viability,[1]; 2.53 µM,1.01
same,relative viability,[1]; 8 µM,1.13
same,relative viability,[2]; 0.005 µM,0.471
same,relative viability,[2]; 0.01581 µM,0.289
same,relative viability,[2]; 0.05 µM,0.178
same,relative viability,[2]; 0.1581 µM,0.0889
same,relative viability,[2]; 0.5 µM,0.0533
same,relative viability,[3]; 0.02 µM,0.849
same,relative viability,[3]; 0.2 µM,0.227
same,relative viability,[3]; 0.6325 µM,0.133
same,relative viability,[3]; 2 µM,0.0914
same,relative viability,[4]; first compound 0.005 µM,0.262
same,relative viability,[4]; first compound 0.01581 µM,0.288
same,relative viability,[4]; first compound 0.05 µM,0.132
same,relative viability,[4]; first compound 0.1581 µM,0.0749
same,relative viability,[4]; first compound 0.5 µM,0.0599
NCI-H2085,relative viability,[1]; 0.08 µM,0.919
same,relative viability,[1]; 0.253 µM,1
same,relative viability,[1]; 0.8 µM,0.891
same,relative viability,[1]; 2.53 µM,0.971
same,relative viability,[1]; 8 µM,1.04
same,relative viability,[2]; 0.005 µM,0.833
same,relative viability,[2]; 0.01581 µM,0.586
same,relative viability,[2]; 0.05 µM,0.624
same,relative viability,[2]; 0.1581 µM,0.361
same,relative viability,[2]; 0.5 µM,0.285
same,relative viability,[3]; 0.02 µM,0.931
same,relative viability,[3]; 0.2 µM,1.02
same,relative viability,[3]; 0.6325 µM,0.989
same,relative viability,[3]; 2 µM,0.813
same,relative viability,[4]; first compound 0.005 µM,0.65
same,relative viability,[4]; first compound 0.01581 µM,0.516
same,relative viability,[4]; first compound 0.05 µM,0.465
same,relative viability,[4]; first compound 0.1581 µM,0.264
same,relative viability,[4]; first compound 0.5 µM,0.237
NCI-H2087,relative viability,[1]; 0.08 µM,1.05
same,relative viability,[1]; 0.253 µM,1.13
same,relative viability,[1]; 0.8 µM,0.954
same,relative viability,[1]; 2.53 µM,1.05
same,relative viability,[1]; 8 µM,1.28
same,relative viability,[2]; 0.005 µM,0.927
same,relative viability,[2]; 0.01581 µM,0.561
same,relative viability,[2]; 0.05 µM,0.243
same,relative viability,[2]; 0.1581 µM,0.0918
same,relative viability,[2]; 0.5 µM,0.0911
same,relative viability,[3]; 0.02 µM,0.992
same,relative viability,[3]; 0.2 µM,1.02
same,relative viability,[3]; 0.6325 µM,0.688
same,relative viability,[3]; 2 µM,0.571
same,relative viability,[4]; first compound 0.005 µM,0.767
same,relative viability,[4]; first compound 0.01581 µM,0.392
same,relative viability,[4]; first compound 0.05 µM,0.344
same,relative viability,[4]; first compound 0.1581 µM,0.137
same,relative viability,[4]; first compound 0.5 µM,0.12
NCI-H2126,relative viability,[1]; 0.08 µM,0.975
same,relative viability,[1]; 0.253 µM,1.01
same,relative viability,[1]; 0.8 µM,0.842
same,relative viability,[1]; 2.53 µM,1.03
same,relative viability,[1]; 8 µM,1.05
same,relative viability,[2]; 0.005 µM,0.875
same,relative viability,[2]; 0.01581 µM,0.397
same,relative viability,[2]; 0.05 µM,0.582
same,relative viability,[2]; 0.1581 µM,0.391
same,relative viability,[2]; 0.5 µM,0.303
same,relative viability,[3]; 0.02 µM,0.915
same,relative viability,[3]; 0.2 µM,0.532
same,relative viability,[3]; 0.6325 µM,0.356
same,relative viability,[3]; 2 µM,0.351
same,relative viability,[4]; first compound 0.005 µM,0.994
same,relative viability,[4]; first compound 0.01581 µM,0.8
same,relative viability,[4]; first compound 0.05 µM,0.635
same,relative viability,[4]; first compound 0.1581 µM,0.486
same,relative viability,[4]; first compound 0.5 µM,0.407
NCI-H2170,relative viability,[1]; 0.08 µM,1.13
same,relative viability,[1]; 0.253 µM,1.03
same,relative viability,[1]; 0.8 µM,0.884
same,relative viability,[1]; 2.53 µM,1.06
same,relative viability,[1]; 8 µM,0.991
same,relative viability,[2]; 0.005 µM,1.07
same,relative viability,[2]; 0.05 µM,0.766
same,relative viability,[2]; 0.1581 µM,0.384
same,relative viability,[2]; 0.5 µM,0.161
same,relative viability,[3]; 0.02 µM,1.02
same,relative viability,[3]; 0.2 µM,0.88
same,relative viability,[3]; 0.6325 µM,0.529
same,relative viability,[3]; 2 µM,0.464
same,relative viability,[4]; first compound 0.005 µM,1.43
same,relative viability,[4]; first compound 0.01581 µM,0.754
same,relative viability,[4]; first compound 0.05 µM,0.92
same,relative viability,[4]; first compound 0.1581 µM,0.195
same,relative viability,[4]; first compound 0.5 µM,0.311
NCI-H2228,relative viability,[1]; 0.08 µM,1.2
same,relative viability,[1]; 0.253 µM,1.08
same,relative viability,[1]; 0.8 µM,0.916
same,relative viability,[1]; 2.53 µM,1.03
same,relative viability,[1]; 8 µM,1.18
same,relative viability,[2]; 0.005 µM,0.735
same,relative viability,[2]; 0.01581 µM,0.471
same,relative viability,[2]; 0.05 µM,0.407
same,relative viability,[2]; 0.1581 µM,0.145
same,relative viability,[2]; 0.5 µM,0.107
same,relative viability,[3]; 0.02 µM,0.976
same,relative viability,[3]; 0.2 µM,1.02
same,relative viability,[3]; 0.6325 µM,0.75
same,relative viability,[3]; 2 µM,0.458
same,relative viability,[4]; first compound 0.005 µM,0.292
same,relative viability,[4]; first compound 0.01581 µM,0.234
same,relative viability,[4]; first compound 0.05 µM,0.177
same,relative viability,[4]; first compound 0.1581 µM,0.169
same,relative viability,[4]; first compound 0.5 µM,0.132
NCI-H2347,relative viability,[1]; 0.08 µM,1.01
same,relative viability,[1]; 0.253 µM,1.06
same,relative viability,[1]; 0.8 µM,0.759
same,relative viability,[1]; 2.53 µM,1.03
same,relative viability,[1]; 8 µM,1.11
same,relative viability,[2]; 0.005 µM,0.706
same,relative viability,[2]; 0.01581 µM,0.524
same,relative viability,[2]; 0.05 µM,0.457
same,relative viability,[2]; 0.1581 µM,0.391
same,relative viability,[2]; 0.5 µM,0.376
same,relative viability,[3]; 0.02 µM,0.928
same,relative viability,[3]; 0.2 µM,0.834
same,relative viability,[3]; 0.6325 µM,0.49
same,relative viability,[3]; 2 µM,0.448
same,relative viability,[4]; first compound 0.005 µM,0.559
same,relative viability,[4]; first compound 0.01581 µM,0.353
same,relative viability,[4]; first compound 0.05 µM,0.364
same,relative viability,[4]; first compound 0.1581 µM,0.415
same,relative viability,[4]; first compound 0.5 µM,0.449
